# Experimental data taken from patent US20170240556A1, “BIFLUORODIOXALANE-AMINO-BENZIMIDAZOLE KINASE INHIBITORS FOR THE TREATMENT OF CANCER, AUTOIMMUNEINFLAMMATION AND CNS DISORDERS” (4SC DISCOVERY GMBH, priority 2012, published 2017).
# Assays:
# [1] = molecular target: Casein kinase 1 delta (CSKN1D) (Homo sapiens, UniProt P48730); test: Casein kinase assay, CK1 delta; type: biochemical; details: recombinant CSKN1D 5 nM, ATP 10 μM
# [2] = molecular target: Casein kinase 1 epsilon (CSKN1E) (Homo sapiens, UniProt P49674); test: Casein kinase assay, CK1 epsilon; type: biochemical; details: recombinant CSKN1E 30 nM, ATP 10 μM
# Casein kinase 1 epsilon (CSKN1E), sequence (P49674 whole entry): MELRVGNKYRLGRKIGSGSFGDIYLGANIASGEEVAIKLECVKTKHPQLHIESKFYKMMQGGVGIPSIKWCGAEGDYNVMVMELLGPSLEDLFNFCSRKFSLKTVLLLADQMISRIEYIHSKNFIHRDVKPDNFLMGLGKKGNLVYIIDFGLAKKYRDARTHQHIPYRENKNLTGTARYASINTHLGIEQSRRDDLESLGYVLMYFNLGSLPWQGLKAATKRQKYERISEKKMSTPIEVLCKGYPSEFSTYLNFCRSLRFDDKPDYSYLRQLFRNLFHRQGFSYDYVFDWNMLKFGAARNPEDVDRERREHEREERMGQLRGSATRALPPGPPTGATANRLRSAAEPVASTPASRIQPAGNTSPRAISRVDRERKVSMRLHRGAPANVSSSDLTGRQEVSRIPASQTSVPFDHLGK
# Casein kinase 1 delta (CSKN1D), sequence (P48730 whole entry): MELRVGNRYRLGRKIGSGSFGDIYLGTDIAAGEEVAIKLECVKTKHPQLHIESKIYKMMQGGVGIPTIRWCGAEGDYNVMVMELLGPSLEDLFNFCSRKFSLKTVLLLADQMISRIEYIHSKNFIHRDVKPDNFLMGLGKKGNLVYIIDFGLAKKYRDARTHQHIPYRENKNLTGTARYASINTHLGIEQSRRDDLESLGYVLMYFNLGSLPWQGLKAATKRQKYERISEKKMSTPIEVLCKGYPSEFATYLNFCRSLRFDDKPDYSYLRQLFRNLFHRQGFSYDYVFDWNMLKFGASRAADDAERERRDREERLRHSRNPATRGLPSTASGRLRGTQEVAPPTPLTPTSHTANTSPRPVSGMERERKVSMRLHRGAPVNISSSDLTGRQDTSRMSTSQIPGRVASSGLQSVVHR
IC50 [1],IC50 [2],SMILES
> 1000 nM,> 1000 nM,"O=C(Nc1nc2cc3c(cc2[nH]1)OC(F)(F)O3)c1cc(Cl)ccc1O [Compound 86, 5-chloro-N-(2,2-difluoro-5H-[1,3]dioxolo[4′,5′:4,5]benzo[1,2-d]imidazol-6-yl)-2-hydroxybenzamide]"
< 200 nM,200 to 1000 nM,"Nc1cccc(C(=O)Nc2nc3cc4c(cc3[nH]2)OC(F)(F)O4)c1 [Compound 87, 3-amino-N-(2,2-difluoro-5H-[1,3]dioxolo[4′,5′:4,5]benzo[1,2-d]imidazol-6-yl)benzamide]"
< 200 nM,< 200 nM,"O=C(Nc1nc2cc3c(cc2[nH]1)OC(F)(F)O3)c1cc([N+](=O)[O-])c[nH]1 [Compound 88, N-(2,2-difluoro-5H-[1,3]dioxolo[4′,5′:4,5]benzo[1,2-d]imidazol-6-yl)-4-nitro-1H-pyrrole-2-carboxamide]"
200 to 1000 nM,200 to 1000 nM,"Cc1ccc(C(=O)Nc2nc(C(=O)Nc3nc4cc5c(cc4[nH]3)OC(F)(F)O5)ns2)cc1 [Compound 89, N-(2,2-difluoro-5H-[1,3]dioxolo[4′,5′:4,5]benzo[1,2-d]imidazol-6-yl)-5-(4-methylbenzamido)-1,2,4-thiadiazole-3-carboxamide]"
> 1000 nM,> 1000 nM,"COc1ccc(C(=O)Nc2nc(C(=O)Nc3nc4cc5c(cc4[nH]3)OC(F)(F)O5)ns2)cc1 [Compound 90, N-(2,2-difluoro-5H-[1,3]dioxolo[4′,5′:4,5]benzo[1,2-d]imidazol-6-yl)-5-(4-methoxybenzamido)-1,2,4-thiadiazole-3-carboxamide]"
< 200 nM,< 200 nM,O=C(Nc1nc(C(=O)Nc2nc3cc4c(cc3[nH]2)OC(F)(F)O4)ns1)c1ccc(Cl)cc1 [Compound 91]
< 200 nM,< 200 nM,"O=C(Nc1nc(C(=O)Nc2nc3cc4c(cc3[nH]2)OC(F)(F)O4)ns1)c1ccc(F)cc1 [Compound 92, N-(2,2-difluoro-5H-[1,3]dioxolo[4′,5′:4,5]benzo[1,2-d]imidazol-6-yl)-5-(4-fluorobenzamido)-1,2,4-thiadiazole-3-carboxamide]"
> 1000 nM,> 1000 nM,"CC(=O)Nc1n[nH]c(C(=O)Nc2nc3cc4c(cc3[nH]2)OC(F)(F)O4)n1 [Compound 95, 3-acetamido-N-(2,2-difluoro-5H-[1,3]dioxolo[4′,5′:4,5]benzo[1,2-d]imidazol-6-yl)-1H-1,2,4-triazole-5-carboxamide]"
200 to 1000 nM,200 to 1000 nM,"O=C(Nc1nc2cc3c(cc2[nH]1)OC(F)(F)O3)c1csc(C2CCN(c3ncnc4ccsc34)CC2)n1 [Compound 97, N-(2,2-difluoro-5H-[1,3]dioxolo[4′,5′:4,5]benzo[1,2-d]imidazol-6-yl)-2-(1-(thieno[3,2-d]pyrimidin-4-yl)piperidin-4-yl)thiazole-4-carboxamide]"
200 to 1000 nM,> 1000 nM,"O=C(Nc1nc2cc3c(cc2[nH]1)OC(F)(F)O3)c1csc(-n2c(=O)n(CCN3CCOCC3)c3ccccc32)n1 [Compound 98, N-(2,2-difluoro-5H-[1,3]dioxolo[4′,5′:4,5]benzo[1,2-d]imidazol-6-yl)-2-(3-(2-morpholinoethyl)-2-oxo-2,3-dihydro-1H-benzo[d]imidazol-1-yl)thiazole-4-carboxamide]"
> 1000 nM,> 1000 nM,"COc1cc(Nc2ncc(C(=O)Nc3nc4cc5c(cc4[nH]3)OC(F)(F)O5)s2)nc(OC)n1 [Compound 99, N-(2,2-difluoro-5H-[1,3]dioxolo[4′,5′:4,5]benzo[1,2-d]imidazol-6-yl)-2-((2,6-dimethoxypyrimidin-4-yl)amino)thiazole-5-carboxamide]"
< 200 nM,< 200 nM,"CC(=O)c1c[nH]c(C(=O)Nc2nc3cc4c(cc3[nH]2)OC(F)(F)O4)c1 [Compound 104, 4-acetyl-N-(2,2-difluoro-5H-[1,3]dioxolo[4′,5′:4,5]benzo[1,2-d]imidazol-6-yl)-1H-pyrrole-2-carboxamide]"
< 200 nM,< 200 nM,"NC(=O)c1ccc(C(=O)Nc2nc3cc4c(cc3[nH]2)OC(F)(F)O4)cc1 [Compound 111, N^1-(2,2-difluoro-5H-[1,3]dioxolo[4′,5′:4,5]benzo[1,2-d]imidazol-6-yl)terephthalamide]"
< 200 nM,< 200 nM,"O=C(Nc1nc2cc3c(cc2[nH]1)OC(F)(F)O3)c1ccc(S(=O)(=O)N2CCOCC2)cc1 [Compound 117, N-(2,2-difluoro-5H-[1,3]dioxolo[4′,5′:4,5]benzo[1,2-d]imidazol-6-yl)-4-(morpholinosulfonyl)benzamide]"
200 to 1000 nM,> 1000 nM,"O=C(Nc1n[nH]c(C(=O)Nc2nc3cc4c(cc3[nH]2)OC(F)(F)O4)n1)c1ccc(Cl)cc1 [Compound 129, 3-(chlorobenzamido)-N-(2,2-difluoro-5H-[1,3]dioxolo[4′,5′:4,5]benzo[1,2-d]imidazol-6-yl)-1H-1,2,4-triazole-5-carboxamide]"
< 200 nM,< 200 nM,"COc1ccc2cc([C@H](C)C(=O)Nc3nc4cc5c(cc4[nH]3)OC(F)(F)O5)ccc2c1 [Compound 133, (S)-N-(2,2-difluoro-5H-[1,3]dioxolo[4′,5′:4,5]benzo[1,2-d]imidazol-6-yl)-2-(6-methoxymaphthalen-2-yl)propanamide]"
< 200 nM,< 200 nM,"Cc1nnsc1-c1nc(C(=O)Nc2nc3cc4c(cc3[nH]2)OC(F)(F)O4)cs1 [Compound 134, N-(2,2-difluoro-5H-[1,3]dioxolo[4′,5′:4,5]benzo[1,2-d]imidazol-6-yl)-2-(4-methyl-1,2,3-thiadiazol-5-yl)thiazole-4-carboxamide]"
< 200 nM,< 200 nM,"O=C(Nc1nc2cc3c(cc2[nH]1)OC(F)(F)O3)c1csc(-c2cscn2)n1 [Compound 135, N-(2,2-difluoro-5H-[1,3]dioxolo[4′,5′:4,5]benzo[1,2-d]imidazol-6-yl)-[2,4-bithiazole]-4-carboxamide]"
< 200 nM,200 to 1000 nM,"O=C(Nc1nc2cc3c(cc2[nH]1)OC(F)(F)O3)c1coc(-c2cccs2)n1 [Compound 136, N-(2,2-difluoro-5H-[1,3]dioxolo[4′,5′:4,5]benzo[1,2-d]imidazol-6-yl)-2-(thiophen-2-yl)oxazole-4-carboxamide]"
< 200 nM,< 200 nM,"Cc1cc(-c2nc(C(=O)Nc3nc4cc5c(cc4[nH]3)OC(F)(F)O5)cs2)no1 [Compound 141, N-(2,2-difluoro-5H-[1,3]dioxolo[4′,5′:4,5]benzo[1,2-d]imidazol-6-yl)-2-(5-methylisoxazol-3-yl)thiazole-4-carboxamide]"
< 200 nM,> 1000 nM,"O=C(Nc1nc2cc3c(cc2[nH]1)OC(F)(F)O3)c1ccc(-n2cccn2)cc1 [Compound 142, N-(2,2-difluoro-5H-[1,3]dioxolo[4′,5′:4,5]benzo[1,2-d]imidazol-6-yl)-4-(1H-pyrazol-1-yl)benzamide]"
200 to 1000 nM,200 to 1000 nM,"O=C(Nc1nc2cc3c(cc2[nH]1)OC(F)(F)O3)c1cc(-c2ccco2)on1 [Compound 143, N-(2,2-difluoro-5H-[1,3]dioxolo[4′,5′:4,5]benzo[1,2-d]imidazol-6-yl)-5-(furan-2-yl)isoxazole-3-carboxamide]"
< 200 nM,> 1000 nM,"Cc1nn(C)cc1-c1cc(C(=O)Nc2nc3cc4c(cc3[nH]2)OC(F)(F)O4)no1 [Compound 144, N-(2,2-difluoro-5H-[1,3]dioxolo[4′,5′:4,5]benzo[1,2-d]imidazol-6-yl)-5-(1,3-dimethyl-1H-pyrazol-4-yl)isoxazole-3-carboxamide]"
